Where a name gives a salt, the structure may show the parent alone.
Experiments:
[1] = test system: Randox MDPV kit; details: compared to 100% for (±)-MDPV, Swortwood et al 2013, Table 7; cited from earlier work
[2] = test system: Randox mephedrone/methcathinone kit; details: compared to 100% for (±)-mephedrone, Swortwood et al 2013, Table 7; cited from earlier work
[3] = test system: CEDIA amphetamine/ecstasy immunoassay; details: CEDIA assay; tested at 5,000 ng/ml; Petrie et al 2013; cited from earlier work
[4] = test system: DO antibody 2 (IgG fraction of antiserum raised to DOB-BSA); assay: Competitive microtitre plate ELISA, DO antibody 2 (antiserum raised to DOB-BSA); type: binding; details: for % Cross reactivity: DO antibody 2, relative to DOB = 100
Method: The wells of an enhanced binding 96 well polystyrene microtitre plate were coated with IgG fraction of antiserum raised to DOB-BSA, diluted in 10 mM Tris, pH8.5 (125 μl/well). The appropriate antibody coating dilution was determined using standard ELISA checkerboard techniques. The plate was incubated for 2 hours at 37° C., washed 4 times over 10 minutes with Tris buffered saline containing Tween 20 (TBST) and tapped dry. Standard solutions of DOB were prepared in TBST at 0, 0.625, 1.25, 2.5, 5, 10, 20 & 40 ng/ml, and 50 μl of each was added to the appropriate wells. 75 μl of conjugate (Example 22) diluted in Tris buffer (pH 7.2) containing EDTA, D-mannitol, sucrose, thimerosal and BSA, was added to each of the wells. The appropriate dilution of conjugate was also determined using standard ELISA checkerboard techniques. The plate was incubated at 25° C. for 1 hour. Excess unbound conjugate was removed by washing 6 times over a 10-15 minute period with TBST and tapped dry. 125 μl of tetramethylbenzidine (TMB) substrate solution was added to each well of the plate that was then incubated for 20 minutes in the dark at room temperature. The reaction was terminated by addition of 125 μl 0.2 M H2SO4 to each well. The absorbance was measured at 450 nm using a microtitre plate reader. In order to determine the specificity of the competitive ELISAs, standard solutions of a range of structurally similar compounds were prepared in TBST. Using calibration curves generated from these compounds (0-40 ng/ml), the cross-reactivity was determined.

[5] = test system: DO antibody 1 (IgG fraction of antiserum raised to DOB-BSA); assay: Competitive microtitre plate ELISA, DO antibody 1 (antiserum raised to DOB-BSA); type: binding; details: for % Cross-Reactivity: DO antibody 1, relative to DOB = 100%, calibration curves 0-40 ng/ml
Method: The appropriate antibody coating dilution was determined using standard ELISA checkerboard techniques. The plate was incubated for 2 hours at 37° C., washed 4 times over 10 minutes with Tris buffered saline containing Tween 20 (TBST) and tapped dry. […] The appropriate dilution of conjugate was also determined using standard ELISA checkerboard techniques. The plate was incubated at 25° C. for 1 hour. Excess unbound conjugate was removed by washing 6 times over a 10-15 minute period with TBST and tapped dry. 125 μl of tetramethylbenzidine (TMB) substrate solution was added to each well of the plate that was then incubated for 20 minutes in the dark at room temperature. The reaction was terminated by addition of 125 μl 0.2 M H2SO4 to each well. The absorbance was measured at 450 nm using a microtitre plate reader.

[6] = test system: EMIT II Plus amphetamines assay; details: tested at 5,000 ng/ml, Petrie et al 2013; cited from earlier work
[7] = test system: 2C antibody (IgG fraction of antiserum raised to 2C-B-BSA); assay: Competitive microtitre plate ELISA, 2C antibody (antiserum raised to 2C-B-BSA); type: binding; details: for % Cross-Reactivity / IC50 (standard concentration which produces 50% inhibition of maximal signal): 2C antibody; for % Cross-Reactivity: relative to 2C-B = 100%, calibration curves 0-80 ng/ml; for IC50 (standard concentration which produces 50% inhibition of maximal signal): 2C-B standard, competitive ELISA
Method: The wells of an enhanced binding 96 well polystyrene microtitre plate were coated with IgG fraction of antiserum raised to 2C-B-BSA, diluted in 10 mM Tris, pH8.5 (125 μl/well). The appropriate antibody coating dilution was determined using standard ELISA checkerboard techniques. The plate was incubated overnight at 4° C., washed 4 times over 10 minutes with Tris buffered saline containing Tween 20 (TBST) and tapped dry. Standard solutions of 2CB were prepared in TBST at 0, 1.25, 2.5, 5, 10, 20, 40 & 80 ng/ml, and 50 μl of each was added to the appropriate wells. 75 μl of conjugate (Example 11) diluted in Tris buffer (pH 7.2) containing EDTA, D-mannitol, sucrose, thimerosal and BSA, was added to each of the wells. The appropriate dilution of conjugate was also determined using standard ELISA checkerboard techniques. The plate was incubated at 25° C. for 1 hour. Excess unbound conjugate was removed by washing 6 times over a 10-15 minute period with TBST and tapped dry. 125 μl of tetramethylbenzidine (TMB) substrate solution was added to each well of the plate that was then incubated for 20 minutes in the dark at room temperature. The reaction was terminated by addition of 125 μl 0.2 M H2SO4 to each well. The absorbance was measured at 450 nm using a microtitre plate reader. In order to determine the specificity of the competitive ELISAs, standard solutions of a range of structurally similar compounds were prepared in TBST. Using calibration curves generated from these compounds (0-80 ng/ml) percentage cross-reactivity was determined.

[8] = test system: AxSYM amphetamine/methamphetamine II assay; details: even when tested at 5,000 ng/mL, Petrie et al 2013; cited from earlier work

SMILES	cross-reactivity [3]	% Cross reactivity [4] [%]	% Cross-Reactivity [5] [%]	cross-reactivity [6]	% Cross-Reactivity [7] [%]	cross-reactivity [8]	further results
CCCC(C(=O)c1ccc2c(c1)OCO2)N1CCCC1 (racemic) [(±)-MDPV]	–	–	–	–	–	–	cross-reactivity [1]: 100%
CNC(C)C(=O)c1ccc(C)cc1 (racemic) [(±)-mephedrone, mephedrone]	–	–	–	–	–	–	cross-reactivity [2]: 100%
COc1cc(CC(C)N)c(OC)cc1Br (racemic) [DOB, 1-(4-bromo-2,5-dimethoxyphenyl)propan-2-amine]	8.5%	100	100.0	39.1%	<1.0	does not show cross-reactivity	IC50 ([4]; DO antibody 2, competitive ELISA): IC50 - 0.437 ng/mL; % B/Bo ([5]; DOB 0.625 ng/ml): 64.5%; % B/Bo ([5]; DOB 1.25 ng/ml): 58.1%; % B/Bo ([5]; DOB 2.5 ng/ml): 46.3%; % B/Bo ([5]; DOB 5 ng/ml): 34.6%; % B/Bo ([5]; DOB 10 ng/ml): 27.5%; % B/Bo ([5]; DOB 20 ng/ml): 17.5%; % B/Bo ([5]; DOB 40 ng/ml): 11.5%
COc1cc(CC(C)N)c(OC)cc1C (racemic) [DOM, 1-(2,5-dimethoxy-4-methylphenyl)propan-2-amine]	3.9%	49	112.7	23.2%	–	does not show cross-reactivity	–
NCCc1ccccc1 [(+)-Phenethylamine]	–	–	<1.0	–	<1.0	–	binding of the antibody described in Table 2 ([5]; summary in words): not; binding of the antibody described in Table 4 ([7]; summary in words): not
CC(N)Cc1ccccc1 (centres unmarked) [Amphetamine]	–	–	<1.0	–	–	–	–
CC(N)Cc1c2ccoc2c(Br)c2ccoc12 (centres unmarked) [Bromo DragonFly (HCl), 1-(4-Bromofuro[2,3-f][1]benzofuran-8-yl)propan-2-amine]	–	96	–	–	–	–	–
COc1cc(CC(C)N)c(OC)cc1Cl (centres unmarked) [DOC, 4-chloro-2,5dimethoxyamphetamine]	–	47	–	–	–	–	–
CCc1cc(OC)c(CC(C)N)cc1OC (centres unmarked) [DOET]	4.8%	50	–	18.8%	–	does not show cross-reactivity	–
COc1cc(CC(C)N)c(OC)cc1I.Cl (centres unmarked) [DOI HCl]	–	73	–	–	–	–	–
COc1cc([N+](=O)[O-])c(OC)cc1CC(C)N (centres unmarked) [DON, 1-(2,5-dimethoxy-4-nitrophenyl)propan-2-amine]	–	57	43.1	–	–	–	–
COc1cc(CCN)c(OC)cc1Br [Hapten 2C-B, 1-(4-bromo-2,5-dimethoxyphenyl)ethan-2-amine]	3.0%	–	<1.0	36.0%	100.0	does not show cross-reactivity	% B/Bo ([7]; 2C-B 1.25 ng/ml): 86.8%; % B/Bo ([7]; 2C-B 2.5 ng/ml): 79.2%; % B/Bo ([7]; 2C-B 5 ng/ml): 69.2%; % B/Bo ([7]; 2C-B 10 ng/ml): 59.5%; % B/Bo ([7]; 2C-B 20 ng/ml): 53.5%; % B/Bo ([7]; 2C-B 40 ng/ml): 44.6%; % B/Bo ([7]; 2C-B 80 ng/ml): 38.1%; IC50 (standard concentration which produces 50% inhibition of maximal signal) [7]: 0.024618 µg/mL; IC50 (standard concentration which produces 50% inhibition of maximal signal) ([7]; listed as 2CB): is 24.6 ng/ml).
COc1cc(CCN)c(OC)cc1Cl [Hapten 2C-C, 1-(4-chloro-2,5-dimethoxyphenyl)ethan-2-amine]	–	–	<1.0	–	148.6	–	–
COc1cc(CCN)c(OC)cc1C#N [Hapten 2C-CN, 1-(4-cyano-2,5-dimethoxyphenyl)ethan-2-amine]	–	–	<1.0	–	66.8	–	–
COc1cc(CCN)c(OC)cc1C [Hapten 2C-D, 1-(2,5-dimethoxy4-methylphenyl)ethan-2-amine]	–	–	<1.0	–	308.3	–	–
CCc1cc(OC)c(CCN)cc1OC [Hapten 2C-E, 1-(2,5-dimethoxy-4-ethylphenyl)ethan-2-amine]	–	–	<1.0	–	178.8	–	–
COc1ccc(OC)c(CCN)c1 [Hapten 2C-H]	3.1%	–	–	none	–	does not show cross-reactivity	–
COc1cc(CCN)c(OC)cc1I [Hapten 2C-I, 1-(2,5-dimethoxy-4-iodophenyl)ethan-2-amine]	none	–	–	28.6%	–	does not show cross-reactivity	–
CCCc1cc(OC)c(CCN)cc1OC [Hapten 2C-P, 1-(2,5-dimethoxy-4-propylphenyl)ethan-2-amine]	–	–	<1.0	–	276.8	–	–
COc1cc(SC(C)C)c(OC)cc1CCN [Hapten 2C-T-4]	2.2%	–	–	none	–	does not show cross-reactivity	–
CN[C@@H](C)Cc1ccccc1 [Methamphetamine]	–	–	<1.0	–	–	–	–
COc1cc(OC)c(OC)cc1CC(C)N (centres unmarked) [TMA, 2,4,5-trimethoxyamphetamine]	–	5	9.8	–	–	–	–
